The values below come from patent US20240262804A1, “NITROGEN-CONTAINING HETEROCYCLIC KETONES, PREPARATION METHODS AND MEDICINAL USES THEREOF” (Hansoh Bio LLC, priority 2021, published 2024).

Data set [1] can be described thus: Pharmacokinetic profiles in male SD rats (IV and PO). The conditions noted are these: IV 1 mg/kg, PO 5 mg/kg, route for this parameter not given; for clearance / half-life / Vd: rat, plasma; for Vd: read-out: VSS. Format: in vivo, rat. Here is the method: Pharmacokinetic profile of compounds were determined by IV (1 mg/Kg) and PO (5 mg/Kg) administrations in male SD rats. Compounds were administrated with free base and formulated in 5% DMAC+25% PEG-400+70%(30% 2-HP-β-CD in water). The compounds were dosed at 1 mg/kg for intravenous and 5 mg/kg oral administration. Blood samples were collected at 0, 0.083, 0.25, 0.5, 1, 2, 4, 8 and 24 hours post dose, serial bleeding for plasma for the IV group. Blood samples were collected at 0, 0.25, 0.5, 1, 2, 4, 6, 8 and 24 hours post dose, serial bleeding for the PO group. Approximately 150 μL whole blood/time point were collected in K2EDTA tube via jugular vein. Blood sample was put on ice and centrifuged at 2000 g for 5 min to obtain plasma sample within 15 minutes. PK parameters were estimated by non-compartmental model using WinNonlin 8.2.

Data set [2] deals with isolated rat ventricular myocytes. Description: Cardiomyocyte contractility assay (sarcomere shortening, IonOptix). Format: cell-based. The following applies: for Ratio of % FS 5 uM/15 uM: 5 uM versus 15 uM; for % FS (% reduction from baseline) at 5 uM / % FS (% reduction from baseline) at 15uM: rat ventricular myocytes, paced at 1 Hz. The protocol: The effects of compounds on sarcomere shortening in isolated rat ventricular myocytes were assessed using the IonOptix apparatus.
Myocytes were placed in a chamber mounted on the stage of an inverted microscope and continuously superfused with oxygenated Tyrode solution containing (in millimolar): 121 NaCl, 5 KCl, 2.8 NaCH3CO2, MgCl2·6H2O, Glucose, NaHCO3, Na2HPO4. 7H2O, and 1.5 mM CaCl2). Solution was preheated at 36±1° C. and electrical-field stimulated at 1 Hz by 2 platinum electrodes connected to a Myopacer field stimulator (IonOptix Corporation) with 4 ms square-wave bipolar pulses (10 V). Cells were illuminated by the microscope light. The cell image was collected by a x40 ultraviolet epifluorescence objective, diverted to the microscope side port, where the cell image was recorded by a charge coupled device (CCD) camera (MyoCam, IonOptix Corporation), converting optical brightness (pixels) into electrical signals (voltage). The MyoCam configuration allowed acquisition of up to 240 images per second (240 Hz frame rate). Contractile properties of the myocytes were analyzed in real time by a video detector and a personal computer-based data acquisition system (Ionwizard 6.0, IonOptix Corporation). Only myocytes with clear striations, quiescent prior to pacing with a resting sarcomere length greater or equal to 1.75 μm were used, since this is presumed to represent the lower limit for healthy cells.
Sarcomere shortening was monitored in control solution (predrug) until stable recordings were obtained (baseline period). To determine the response to compounds, myocytes were first superfused for 60 seconds with Tyrode's buffer followed by at least a 5 minute—(or until steady state was reached, up to 10 min) superfusion of compound. Each cell was subjected to 2 concentrations (5 and 15 uM or 5 and 10 uM) of test compounds. For some cells, a washout period was performed after the last concentration. Duration of the washout period was variable, resulting in variability in the washout data. In separate cells, a single concentration of isoproterenol (100 nM) was applied. Data were continuously recorded using the IonOptix software. Contractility data were analyzed using Ionwizard software (IonOptix). For each cell, 10-15 contractility transients at baseline and after treatment were averaged and compared.

The next data set concerns the target bovine cardiac myosin (Bos taurus (Bovine), UniProt Q9BE39). Briefly: Myosin inhibitory potency: PK/LDH-coupled ATPase assay on bovine skinned cardiac myofibrils. Type of data set: biochemical. The conditions noted are these: pCa=6.25, 50 μM ATP, 25° C., read-out: myosin inhibition activity IC50. The essentials: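 Bovine left-ventricle skinned myofibrils (1 mg/mL) in PM12 buffer pH 6.8 at pCa 6.25, 50 μM ATP, PK/LDH-coupled NADH depletion read at 340 nm, 25 °C.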

Chain of bovine cardiac myosin (Q9BE39 whole entry): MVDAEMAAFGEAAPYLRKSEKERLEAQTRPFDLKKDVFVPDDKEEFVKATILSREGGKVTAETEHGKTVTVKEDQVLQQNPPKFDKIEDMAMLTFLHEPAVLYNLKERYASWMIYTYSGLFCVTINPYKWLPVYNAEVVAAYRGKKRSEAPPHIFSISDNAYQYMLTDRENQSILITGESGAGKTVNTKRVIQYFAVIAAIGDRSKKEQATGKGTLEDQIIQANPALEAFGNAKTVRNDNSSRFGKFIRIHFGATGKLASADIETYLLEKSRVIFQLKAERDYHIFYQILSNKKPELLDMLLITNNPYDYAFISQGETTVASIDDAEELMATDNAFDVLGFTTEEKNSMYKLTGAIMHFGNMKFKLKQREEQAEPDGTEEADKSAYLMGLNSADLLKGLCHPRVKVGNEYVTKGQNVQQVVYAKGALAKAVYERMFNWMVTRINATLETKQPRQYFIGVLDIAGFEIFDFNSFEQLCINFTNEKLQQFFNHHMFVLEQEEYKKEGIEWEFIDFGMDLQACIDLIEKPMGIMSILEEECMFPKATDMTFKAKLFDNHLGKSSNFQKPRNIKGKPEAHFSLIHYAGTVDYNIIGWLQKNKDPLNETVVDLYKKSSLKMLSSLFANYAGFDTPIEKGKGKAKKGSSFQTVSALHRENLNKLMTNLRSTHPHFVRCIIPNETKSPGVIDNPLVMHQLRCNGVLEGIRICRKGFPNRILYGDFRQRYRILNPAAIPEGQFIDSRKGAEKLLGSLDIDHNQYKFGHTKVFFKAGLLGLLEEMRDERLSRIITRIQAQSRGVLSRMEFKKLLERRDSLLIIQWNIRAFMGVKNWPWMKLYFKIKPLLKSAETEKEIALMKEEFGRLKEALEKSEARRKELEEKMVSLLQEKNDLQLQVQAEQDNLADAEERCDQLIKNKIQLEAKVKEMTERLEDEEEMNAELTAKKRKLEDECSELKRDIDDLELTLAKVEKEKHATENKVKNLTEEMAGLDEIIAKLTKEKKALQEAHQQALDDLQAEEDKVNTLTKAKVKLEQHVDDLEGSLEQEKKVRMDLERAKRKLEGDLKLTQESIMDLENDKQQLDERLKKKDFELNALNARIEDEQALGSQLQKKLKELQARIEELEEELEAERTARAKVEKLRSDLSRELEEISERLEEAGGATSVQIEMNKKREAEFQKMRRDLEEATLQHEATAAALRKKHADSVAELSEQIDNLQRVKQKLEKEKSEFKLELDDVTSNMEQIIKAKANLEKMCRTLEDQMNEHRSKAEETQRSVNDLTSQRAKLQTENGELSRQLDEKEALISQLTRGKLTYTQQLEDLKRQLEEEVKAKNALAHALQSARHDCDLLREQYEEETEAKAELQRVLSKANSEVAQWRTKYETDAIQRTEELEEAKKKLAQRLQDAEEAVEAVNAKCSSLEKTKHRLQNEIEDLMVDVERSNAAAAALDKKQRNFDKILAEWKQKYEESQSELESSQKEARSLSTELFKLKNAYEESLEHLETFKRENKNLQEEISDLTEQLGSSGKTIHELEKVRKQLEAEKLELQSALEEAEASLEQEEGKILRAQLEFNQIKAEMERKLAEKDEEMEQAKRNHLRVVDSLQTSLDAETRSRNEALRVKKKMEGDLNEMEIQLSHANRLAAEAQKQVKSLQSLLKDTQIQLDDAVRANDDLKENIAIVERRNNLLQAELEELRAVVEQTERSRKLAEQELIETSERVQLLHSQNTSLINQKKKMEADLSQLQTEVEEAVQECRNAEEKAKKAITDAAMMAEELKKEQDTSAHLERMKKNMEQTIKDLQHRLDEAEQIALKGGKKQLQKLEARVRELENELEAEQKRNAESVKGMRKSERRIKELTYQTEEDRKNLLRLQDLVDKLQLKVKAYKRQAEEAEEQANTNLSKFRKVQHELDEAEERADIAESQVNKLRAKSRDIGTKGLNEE
Chain of bovine cardiac myosin (P85100 whole entry partner): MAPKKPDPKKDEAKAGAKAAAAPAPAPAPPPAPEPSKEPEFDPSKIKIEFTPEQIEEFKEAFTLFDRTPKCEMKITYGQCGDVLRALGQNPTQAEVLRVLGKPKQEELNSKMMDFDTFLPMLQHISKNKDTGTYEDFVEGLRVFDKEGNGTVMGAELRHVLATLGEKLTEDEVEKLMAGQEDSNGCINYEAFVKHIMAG
Chain of bovine cardiac myosin (Q3SZE5 whole entry partner): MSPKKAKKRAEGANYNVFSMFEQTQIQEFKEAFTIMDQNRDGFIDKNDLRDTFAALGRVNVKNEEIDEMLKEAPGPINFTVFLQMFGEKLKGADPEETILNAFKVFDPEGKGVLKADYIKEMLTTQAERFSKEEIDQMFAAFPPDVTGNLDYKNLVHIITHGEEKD

By half-life is commonly meant the time in which the quantity being followed falls by half. Low readings indicate fast loss, high ones slow loss. As a reminder, the IC50 is the point on the concentration scale where inhibition reaches its midpoint. Take `Cc1cc([C@H](C)Nc2nc(=O)n(C3CCOCC3)c(=O)[nH]2)ccc1F` [Example 156]: in data set [1], the DNAUC was 5.0522 µg·h/mL, the clearance was 0.19 L/h/kg, the half-life was 5.47 h and the Vd was 0.97 L/kg. In addition, in data set [2], the “Ratio of % FS 5 uM/15 uM” value turned out to be 2.4, the “% FS (% reduction from baseline) at 5 uM” value is given as 61.5 +/− 5.2% and the “% FS (% reduction from baseline) at 15uM” value is given as 26.1 +/− 4%. For the same molecule, at bovine cardiac myosin, the IC50 came out at 1.13 µM.
With `C[C@H](Nc1nc(=O)n(C2CCOCC2)c(=O)[nH]1)c1ccc(F)cc1Cl` [Example 162], in data set [1], the DNAUC stood at 4.1951 µg·h/mL, the clearance was 0.25 L/h/kg, the half-life was 3.74 h and the Vd stood at 0.97 L/kg. In data set [2], the “Ratio of % FS 5 uM/15 uM” value is listed as 1.9, the “% FS (% reduction from baseline) at 5 uM” value is on record as 60.8 +/− 12.7% and the “% FS (% reduction from baseline) at 15uM” value is 32.2 +/− 5.3%.
Consider `C[C@H](Nc1nc(=O)n(C2CCOCC2)c(=O)[nH]1)c1ccc(Cl)c(Cl)c1` [Example 165], for which, in data set [1], the DNAUC came out at 11.4634 µg·h/mL, the clearance was 0.1 L/h/kg, the half-life is 4.58 h and the Vd turned out to be 0.46 L/kg. Besides, the IC50 at bovine cardiac myosin was determined as 0.2 µM.
With `Cc1ccc([C@H](C)Nc2nc(=O)n(C3CCOCC3)c(=O)[nH]2)c(C)c1` [Example 168], in data set [1], the DNAUC was 13.4122 µg·h/mL, the clearance was 0.08 L/h/kg, the half-life is 3.89 h and the Vd was determined as 0.32 L/kg. Further, in data set [2], the “Ratio of % FS 5 uM/15 uM” value stood at 2.2, the “% FS (% reduction from baseline) at 5 uM” value is listed as 54.3 +/− 9.3% and the “% FS (% reduction from baseline) at 15uM” value is given as 24.3 +/− 8.5%. Further, the half-inhibitory concentration (IC50) at bovine cardiac myosin is 1.7 µM.
Regarding `C[C@H](Nc1nc(=O)n(C2CCOCC2)c(=O)[nH]1)c1cc(F)cc(Cl)c1` [Example 172], in data set [1], the DNAUC was found to be 7.631 µg·h/mL, the clearance is 0.15 L/h/kg, the half-life is 3.95 h and the Vd came out at 0.57 L/kg. Besides, in data set [2], the “Ratio of % FS 5 uM/15 uM” value is recorded as 2.2, the “% FS (% reduction from baseline) at 5 uM” value is recorded as 63.6 +/− 3.3% and the “% FS (% reduction from baseline) at 15uM” value is 28.9 +/− 8.7%. Besides, on bovine cardiac myosin, the IC50 was found to be 0.47 µM.
Take `C[C@H](Nc1nc(=O)n(C2CCOCC2)c(=O)[nH]1)c1cccc(C(F)(F)F)c1` [Example 252]: in data set [1], the DNAUC was found to be 3.9598 µg·h/mL, the clearance was 0.21 L/h/kg, the half-life is 4.41 h and the Vd worked out at 0.94 L/kg. In addition, the IC50 on bovine cardiac myosin was 6.89 µM.
Consider `Cc1cccc([C@H](CO)Nc2nc(=O)n(C3CCOCC3)c(=O)[nH]2)c1` [Example 317], for which, on bovine cardiac myosin, the IC50 worked out at 2.85 µM.
Take `C[C@@H](Nc1nc(=O)n(C2CCOCC2)c(=O)[nH]1)c1ccc2c(c1)OC(F)(F)O2` [Example 318]: the IC50 at bovine cardiac myosin was found to be 1.05 µM.
Consider `CC(Nc1nc(=O)n(C2CCOCC2)c(=O)[nH]1)c1cc(F)ccc1F` (centres unmarked) [Example 319], for which, at bovine cardiac myosin, the IC50 is 1.28 µM.
Still for that read-out and setting: to `C[C@H](Nc1nc(=O)n([C@@H]2CCOC[C@@H]2F)c(=O)[nH]1)c1ccc(Cl)c(Cl)c1` [Example 320] belongs 1.02 µM.
As for `C[C@H](Nc1nc(=O)n([C@H]2CCOC[C@H]2F)c(=O)[nH]1)c1ccc(Cl)c(Cl)c1` [Example 321], the IC50 at bovine cardiac myosin came out at 1.07 µM.
As to `CC(C)n1c(=O)nc(N[C@@H](C)c2cccc(C(F)(F)F)c2)[nH]c1=O` [Example 322], the IC50 at bovine cardiac myosin was 1.21 µM.
Turning to `C[C@H](Nc1nc(=O)n([C@H](C)C(F)(F)F)c(=O)[nH]1)c1ccc(Cl)c(Cl)c1` [Example 323], the half-inhibitory concentration (IC50) on bovine cardiac myosin turned out to be 0.71 µM.
For `C[C@H](Nc1nc(=O)n([C@@H](C)C(F)(F)F)c(=O)[nH]1)c1ccc(Cl)c(Cl)c1` [Example 324], the IC50 at bovine cardiac myosin was found to be 1.06 µM.
Same read-out and setting: to `CC(C)n1c(=O)nc(N[C@@H](C)c2ccc(Cl)c(Cl)c2)[nH]c1=O` [Example 325] belongs 1.17 µM; to `COc1cccc([C@H](C)Nc2nc(=O)n(C3CCOCC3)c(=O)[nH]2)c1` [Example 326], 1.35 µM; to `C[C@H](Nc1nc(=O)n(C2CCOCC2)c(=O)[nH]1)c1cccc(C#N)c1` [Example 327], 1.27 µM.
The same measure, in the same setting: then `CC(C)c1ccc([C@H](C)Nc2nc(=O)n(C3CCOCC3)c(=O)[nH]2)cc1` [Example 328], with 0.85 µM; and `CC(=O)N1CCC(c2cccc([C@H](C)Nc3nc(=O)n(C4CCOCC4)c(=O)[nH]3)c2)CC1` [Example 329], with 1.24 µM; and `Cc1cc([C@H](C)Nc2nc(=O)n(C3CCOCC3)c(=O)[nH]2)ccc1Cl` [Example 330], with 1.08 µM.
Regarding `C[C@H](Nc1nc(=O)n(C2CCOCC2)c(=O)[nH]1)c1cccc(C2=CCCCC2)c1` [Example 331], the IC50 at bovine cardiac myosin came to 1.11 µM.
As to `C[C@H](Nc1nc(=O)n([C@@H](C)C(F)(F)F)c(=O)[nH]1)c1cccc(C(F)(F)F)c1` [Example 332], at bovine cardiac myosin, the IC50 was found to be 1.39 µM.
The same measure, in the same setting: to `C[C@@H](Nc1nc(=O)n(C2CCOCC2)c(=O)[nH]1)c1ccc(C(F)(F)F)cc1` [Example 333] belongs 1.03 µM.
Take `C[C@@H](Nc1nc(=O)n(C2CCOCC2)c(=O)[nH]1)c1ccc(C2CC2)cc1` [Example 334]: the IC50 at bovine cardiac myosin amounted to 0.7 µM.
In the case of `Cc1cccc([C@@H](Nc2nc(=O)n(C3CCOCC3)c(=O)[nH]2)C2CC2)c1` [Example 335], the IC50 on bovine cardiac myosin is 0.62 µM.
On the same count and under the same terms, to `C[C@H](Nc1nc(=O)n(C2CCOCC2)c(=O)[nH]1)c1cccc(C2CN(C(=O)OC(C)(C)C)C2)c1` [Example 336] belongs 1.16 µM; to `CC(C)n1c(=O)nc(N[C@@H](C)c2cccc([C@H](C)O)c2)[nH]c1=O` [Example 342], 2.07 µM; to `CC(C)n1c(=O)nc(N[C@@H](C)c2cccc([C@H](C)O)c2)[nH]c1=O` [Example 343], 1.51 µM.
On the same count and under the same terms, then `C[C@H](O)c1cccc([C@H](C)Nc2nc(=O)n(C3CCOCC3)c(=O)[nH]2)c1` [Example 344], with 0.55 µM; and `CC(C)[C@H](O)c1cccc([C@H](C)Nc2nc(=O)n(C3CCOCC3)c(=O)[nH]2)c1` [Example 345], with 0.79 µM.
The same measure, in the same setting: to `C[C@H](Nc1nc(=O)n(C2CCOCC2)c(=O)[nH]1)c1cccc([C@@H](O)C(F)(F)F)c1` [Example 346] belongs 2.58 µM.
For the molecule `CO[C@H]1COCC[C@@H]1n1c(=O)nc(N[C@@H](C)c2cccc(C)c2)[nH]c1=O` [Example 347], the IC50 on bovine cardiac myosin was found to be 2.33 µM.
In the case of `C[C@H](Nc1nc(=O)n(C2CCOCC2)c(=O)[nH]1)c1cccc(C(O)C(F)(F)F)c1` (some centres unmarked) [Example 348], at bovine cardiac myosin, the IC50 was determined as 2.45 µM.
